Test results: patent publication US20090209536A1, “AMINOQUINAZOLINE CANNABINOID RECEPTOR MODULATORS FOR TREATMENT OF DISEASE” (KALYPSYS, INC., priority 2007, published 2009)
Read-outs that look alike come from different tables or passages of the source.

Key:
[1] = target: T1, human cannabinoid receptor type 1 (Homo sapiens, UniProt P21554); assay: Human CB1 Radioligand Binding Assay (basis of selectivity, CB2 vs. CB1); conditions: CB1: HEK 293 EBNA cells expressing human CB1; CB2: CHO CB2 membranes
T1 construct: purchased Perkin Elmer RBHCB1M; host or cells: HEK 293 EBNA cells
Experimental: 2. Human CB1 Radioligand Binding Assay
The incubation buffer was composed of 50 mM Tris-HCl pH 7.4, 2.5 mM EDTA, 5 mM MgCl2, 5.0 mg/ml fatty acid free BSA and the wash buffer was composed of 50 mM Tris-HCl pH 7.4, 2.5 mM EDTA, 5 mM MgCl2, 0.5 mg/ml fatty acid free BSA.

[2] = target: T2, human cannabinoid receptor type 2 (Homo sapiens, UniProt P34972); assay: Human CB2 Radioligand Binding Assay; conditions: membranes from stably transfected CHO CB2 cells
T2 construct: expressed in transfected cells; membrane preparation
In short: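 Test compounds (10 uM final, or dose-response) competed with [3H]CP-55,940, used at the Kd determined per membrane lot, for binding to stable human CB2-CHO membranes over 90 min at 30° C in pH 7.4 Tris/EGTA/MgCl2/BSA buffer. GF/C filtration then scintillation counting; 100 nM CP-55,940 defined 100% efficacy.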

[3] = competition with [3H] CP-55,940, read-out: CB2 Ligand Binding Asssay EC50
[4] = CB2 Ligand Binding Asssay EC50, competition with [3H] CP-55,940

T2 sequence (P34972 whole entry): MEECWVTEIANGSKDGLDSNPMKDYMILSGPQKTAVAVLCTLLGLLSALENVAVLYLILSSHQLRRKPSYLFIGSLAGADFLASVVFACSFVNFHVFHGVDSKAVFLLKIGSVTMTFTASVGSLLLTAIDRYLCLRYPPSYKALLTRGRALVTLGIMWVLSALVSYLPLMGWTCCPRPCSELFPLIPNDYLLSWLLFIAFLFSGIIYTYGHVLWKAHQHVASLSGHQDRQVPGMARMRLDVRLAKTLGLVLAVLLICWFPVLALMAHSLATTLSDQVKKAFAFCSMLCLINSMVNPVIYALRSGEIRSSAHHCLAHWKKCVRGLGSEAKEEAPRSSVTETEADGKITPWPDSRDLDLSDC
T1 sequence (P21554 whole entry): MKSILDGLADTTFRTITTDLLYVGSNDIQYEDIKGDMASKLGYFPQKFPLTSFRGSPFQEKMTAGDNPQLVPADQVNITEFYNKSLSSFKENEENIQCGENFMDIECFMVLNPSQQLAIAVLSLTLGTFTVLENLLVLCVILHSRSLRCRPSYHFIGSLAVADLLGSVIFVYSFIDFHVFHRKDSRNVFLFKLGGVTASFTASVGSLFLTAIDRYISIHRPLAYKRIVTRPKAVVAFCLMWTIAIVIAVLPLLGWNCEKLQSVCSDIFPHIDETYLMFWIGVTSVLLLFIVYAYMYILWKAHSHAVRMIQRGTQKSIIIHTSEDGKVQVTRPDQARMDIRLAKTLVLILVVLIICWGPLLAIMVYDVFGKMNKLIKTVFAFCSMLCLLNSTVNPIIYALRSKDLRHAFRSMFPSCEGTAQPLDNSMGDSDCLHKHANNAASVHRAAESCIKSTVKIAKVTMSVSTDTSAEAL

| Selectivity, CB2 vs. CB1 [1] | EC50 [2, 3] [nM] | SMILES | EC50 [2, 4] [nM] |
| --- | --- | --- | --- |
| + (+ indicates > 10−fold) | < 1000 | CC(=O)N1CCN(c2nc(-c3ccc(C(C)(C)C)cc3)nc3ccccc23)CC1 [Example 201, 1-(4-(2-(4-tert-Butylphenyl)quinazolin-4-yl)piperazin-1-yl)ethanone] |  |
| − (− indicates ≦ 10−fold) | > 1000 | CCOC(=O)N1CCN(c2nc(-c3ccccc3Cl)nc3ccc([N+](=O)[O-])cc23)CC1 [Example 343, Ethyl 4-(2-(2-chlorophenyl)-6-nitroquinazolin-4-yl)piperazine-1-carboxylate] |  |
| − (− indicates ≦ 10−fold) | < 1000 | CCCCN(C)c1nc(-c2ccccc2Cl)nc2ccccc12 [Example 64, N-Butyl-2-(2-chlorophenyl)-N-methylquinazolin-4-amine] |  |
| + (+ indicates > 10−fold) | < 1000 | CCCC(=O)N1CCN(c2nc(-c3ccccc3Cl)nc3cccc(Cl)c23)CC1 [Example 232, 1-(4-(5-Chloro-2-(2-chlorophenyl)quinazolin-4-yl)piperazin-1-yl)butan-1-one] |  |
| − (− indicates ≦ 10−fold) | > 1000 | Clc1ccccc1-c1nc(N2CCNCC2)c2ccccc2n1 [Example 82, 2-(2-Chlorophenyl)-4-piperazin-1-ylquinazoline] |  |
| − (− indicates ≦ 10−fold) | < 1000 | O=C(N1CCN(c2nc(-c3ccccc3Cl)nc3ccccc23)CC1)C(F)(F)F [Example 103, 1-(4-(2-(2-Chlorophenyl)quinazolin-4-yl)piperazin-1-yl)-2,2,2-trifluoroethanone] |  |
| − (− indicates ≦ 10−fold) | < 1000 | CN(c1ccccc1Cl)c1nc(-c2ccc(C(C)(C)C)cc2)nc2ccccc12 [Example 134, 2-(4-tert-Butylphenyl)quinazolin-4-yl 2-chlorophenyl-N-methylamine] |  |
| − (− indicates ≦ 10−fold) | > 1000 | c1ccc(CNc2nc(C3CCCCC3)nc3ccccc23)cc1 [Example 38, N-Benzyl-2-cyclohexylquinazolin-4-amine] |  |
| − (− indicates ≦ 10−fold) | > 1000 | O=C(NCc1nc(N2CCCC2)c2ccccc2n1)Nc1ccc(Cl)c(C(F)(F)F)c1 [Example 11, 1-(4-Chloro-3-(trifluoromethyl)phenyl)-3-((4-(pyrrolidin-1-yl)quinazolin-2-yl)methyl)urea] |  |
| − (− indicates ≦ 10−fold) | > 1000 | Clc1ccccc1Nc1nc(-c2ccccc2)nc2ccccc12 [Example 49, N-(2-Chlorophenyl)-2-phenylquinazolin-4-amine] |  |
| + (+ indicates > 10−fold) | < 1000 | CC(C)C(=O)N1CCN(c2nc(-c3ccccc3Cl)nc3ccccc23)CC1 [Example 96, 1-(4-(2-(2-Chlorophenyl)quinazolin-4-yl)piperazin-1-yl)-2-methylpropan-1-one] |  |
| − (− indicates ≦ 10−fold) | > 1000 | Fc1ccccc1-c1nc(N2CCOCC2)c2ccccc2n1 [Example 149, 2-(2-Fluorophenyl)-4-morpholin-4-ylquinazoline] |  |
| − (− indicates ≦ 10−fold) | > 1000 | CCOC(=O)N1CCN(c2nc(-c3ccc(F)c(F)c3)nc3ccccc23)CC1 [Example 220, Ethyl 4-(2-(3,4-difluorophenyl)quinazolin-4-yl)piperazine-1-carboxylate] |  |
| − (− indicates ≦ 10−fold) | < 1000 | CC(C)Nc1nc(CNS(=O)(=O)c2cccc3ccccc23)nc2ccccc12 [Example 304, N-((4-(Isopropylamino)quinazolin-2-yl)methyl)naphthalene-1-sulfonamide] |  |
| − (− indicates ≦ 10−fold) | > 1000 | CCN(CC)C(=O)c1ccc2c(N3CCN(C(C)=O)CC3)nc(-c3ccccc3Cl)nc2c1 [Example 323, 4-(4-Acetylpiperazin-1-yl)-2-(2-chlorophenyl)-N,N-diethylquinazoline-7-carboxamide] |  |
| − (− indicates ≦ 10−fold) | > 1000 | FC(F)(F)Oc1ccc(-c2nc(N3CCOCC3)c3ccccc3n2)cc1 [Example 141, 4-Morpholin-4-yl-2-(4-trifluoromethoxyphenyl)quinazoline] |  |
| + (+ indicates > 10−fold) | < 1000 | O=S(=O)(NCc1nc(N2CCOCC2)c2ccccc2n1)c1cccc2ccccc12 [Example 300, N-((4-Morpholinoquinazolin-2-yl)methyl)naphthalene-1-sulfonamide] |  |

| Selectivity, CB2 vs. CB1 [1] | EC50 [2, 3] [nM] | SMILES | EC50 [2, 4] [nM] |
| --- | --- | --- | --- |
| + (+ indicates > 10−fold) | < 1000 | CN1CCN(c2nc(-c3ccccc3F)nc3ccccc23)CC1 [Example 152, 2-(2-Fluorophenyl)-4-(4-methylpiperazin-1-yl)quinazoline] |  |
| − (− indicates ≦ 10−fold) | > 1000 | FC(F)(F)Oc1ccc2nc(-c3ccccc3Cl)nc(N3CCCCC3)c2c1 [Example 181, 2-(2-Chlorophenyl)-4-(piperidin-1-yl)-6-(trifluoromethoxy) quinazoline] |  |
| + (+ indicates > 10−fold) | < 1000 | CCOC(=O)N1CCN(c2nc(-c3ccccc3F)nc3cccc(Cl)c23)CC1 [Example 238, Ethyl 4-(5-chloro-2-(2-fluorophenyl)quinazolin-4-yl)piperazine-1-carboxylate] |  |
| + (+ indicates > 10−fold) | < 1000 | Clc1ccc(-c2nc(N3CCOCC3)c3ccccc3n2)cc1 [Example 126, 4-(2-(4-Chlorophenyl)quinazolin-4-yl)morpholine] |  |
| − (− indicates ≦ 10−fold) | > 1000 | CN1CCN(c2nc(-c3ccccc3Cl)nc3c(Cl)cccc23)CC1 [Example 228, 8-Chloro-2-(2-chlorophenyl)-4-(4-methylpiperazin-1-yl)quinazoline] |  |
| + (+ indicates > 10−fold) | < 1000 | CCOC(=O)N1CCN(c2nc(-c3ccccc3Cl)nc3cccc(C(F)(F)F)c23)CC1 [Example 241, Ethyl 4-(2-(2-chlorophenyl)-5-(trifluoromethyl)quinazolin-4-yl)piperazine-1-carboxylate] |  |
| − (− indicates ≦ 10−fold) | > 1000 | CCCOC(=O)N1CCN(c2nc(-c3ccccc3Cl)nc3cccc(Cl)c23)CC1 [Example 231, Propyl 4-(5-chloro-2-(2-chlorophenyl)quinazolin-4-yl)piperazine-1-carboxylate] |  |
| + (+ indicates > 10−fold) | < 1000 | COc1cccc2nc(-c3ccccc3Cl)nc(N3CCN(C(C)=O)CC3)c12 [Example 243, 1-(4-(2-(2-Chlorophenyl)-5-methoxyquinazolin-4-yl)piperazin-1-yl)ethanone] |  |
| − (− indicates ≦ 10−fold) | > 1000 | Cc1ccccc1-c1nc(N2CCOCC2)c2ccccc2n1 [Example 156, 4-Morpholin-4-yl-2-o-tolylquinazoline] |  |
| − (− indicates ≦ 10−fold) | > 1000 | CCCc1nc(N2CCCC2)c2ccccc2n1 [Example 40, 2-Propyl-4-(pyrrolidin-1-yl)quinazoline] |  |
| + (+ indicates > 10−fold) | > 1000 | O=C(NCc1nc(N2CCCC2)c2ccccc2n1)Nc1ccc(Cl)cc1Cl [Example 10, 1-(2,4-Dichlorophenyl)-3-((4-(pyrrolidin-1-yl)quinazolin-2-yl)methyl)urea] |  |
| − (− indicates ≦ 10−fold) | > 1000 | COc1ccc2nc(-c3ccccc3F)nc(N3CCCC3)c2c1 [Example 276, 2-(2-Fluorophenyl)-6-methoxy-4-(pyrrolidin-1-yl)quinazoline] |  |
| − (− indicates ≦ 10−fold) | > 1000 | CN(Cc1ccccc1)c1nc(-c2ccc(F)cc2F)nc2ccccc12 [Example 26, Benzyl[2-(2,4-difluorophenyl)quinazolin-4-yl]methylamine] |  |
| + (+ indicates > 10−fold) | > 1000 | CCOC(=O)N1CCN(c2nc(C(C)c3ccccc3C)nc3ccccc23)CC1 (stereo not shown) [Example 338, Ethyl 4-(2-(1-o-tolylethyl)quinazolin-4-yl)piperazine-1-carboxylate] |  |
| + (+ indicates > 10−fold) | < 1000 | CCOC(=O)N1CCN(c2nc(Nc3ccccc3)nc3cc(C(C)(C)C)ccc23)CC1 [Example 286, Ethyl 4-(7-tert-butyl-2-(phenylamino)quinazolin-4-yl)piperazine-1-carboxylate] |  |
| − (− indicates ≦ 10−fold) | > 1000 | CN(c1ccc(C(C)(C)C)cc1)c1nc(-c2ccc(C(C)(C)C)cc2)nc2ccccc12 [Example 119, N,2-Bis(4-tert-butylphenyl)-N-methylquinazolin-4-amine] |  |

| SMILES | Selectivity, CB2 vs. CB1 [1] | EC50 [2, 3] [nM] | EC50 [2, 4] [nM] |
| --- | --- | --- | --- |
| O=S(=O)(NCc1nc(N2CCOCC2)c2ccccc2n1)c1ccc2ccccc2c1 [Example 301, N-((4-Morpholinoquinazolin-2-yl)methyl)naphthalene-2-sulfonamide] | − (− indicates ≦ 10−fold) |  | > 1000 |
| Clc1ccccc1-c1nc(NCC2CCCCC2)c2ccccc2n1 [Example 193, 2-(2-Chlorophenyl)-N-(cyclohexylmethyl)quinazolin-4-amine] | − (− indicates ≦ 10−fold) |  | > 1000 |
